The values that follow come from US20220370465A1, “TREATMENT OF MAST CELL DISEASES AND EOSINOPHILIC DISORDERS” (Blueprint Medicines Corporation, priority 2019, published 2022).

The test system of assay [1] is tyrosine kinase inhibitor (TKI)-resistant mastocytoma model. The assay is described as follows: TKI-resistant mastocytoma model in vivo.
Assay [2] relates to mast cells. The experiment in a line: Mast cell activation, proliferation and survival. It is filed as cell-based. The source says: In a specific embodiment, the D816 mutation is D816V. In another specific embodiment, the D816 mutation is D816Y. […] In some embodiments, the inhibition is in a dose-dependent manner. […] Current treatment paradigms for mast cell diseases focus on inhibiting individual mast cell mediators for symptom control (anti-histamines, anti-IgE antibodies, etc.), or on using KIT exon 17 inhibitors in KIT mutant mMCAS.

Consider `Cn1cc(-c2cc3c(N4CCN(c5ncc([C@@](C)(N)c6ccc(F)cc6)cn5)CC4)ncnn3c2)cn1` [Compound (I), (5)-1-(4-fluorophenyl)-1-(2-(4-(6-(1-methyl-1H-pyrazol-4-yl)pyrrolo[2,1-f][1,2,4]triazin-4-yl)piperazin-yl)pyrimidin-5-yl)ethan-1-amine], for which the “growth inhibition in mastocytoma model” value in assay [1] is on record as “robust growth inhibition”. In assay [2], the mast cell activation entry is reported as “inhibits mast cell activation”, the mast cell proliferation entry was “inhibits mast cell proliferation” and the “survival of mast cells” value is listed as “does not interfere with the survival of mast cells”.
